Assay results as given in ChEMBL document CHEMBL4017503, “Identification of a New Zinc Binding Chemotype by Fragment Screening” (J Med Chem, 2017).

tested on: not listed separately; assay: Dissociation constant, pKa of the compound; assay type: physicochemical

pKa | SMILES
5.5 | O=C1NC(=O)C(c2ccccc2)O1 (stereo not given) [PEMOLINE DIONE]

target: Carbonic anhydrase 2 (Homo sapiens, UniProt P00918); assay: Binding affinity to human carbonic anhydrase 2 by surface plasmon resonance spectrometry

SMILES | Kd
COc1ccc(/C=C2\NC(=O)NC2=O)c(OC)c1 | > 2000 µM
COc1ccc(/C=C2\NC(=S)NC2=O)c(OC)c1 | > 2000 µM
COc1ccc(CC2NC(=O)NC2=O)c(OC)c1 (stereo not given) | > 2000 µM
CC1(C)OC(=O)NC1=O [DIMETHADIONE] | > 2000 µM
CN1C(=O)OC(C)(C)C1=O [TRIMETHADIONE] | > 2000 µM

Next, values leading:

Kd | SMILES
> 2000 µM | O=C1NC(=O)C(c2ccccc2)N1 (stereo not given)
> 2000 µM | O=C1NC(=O)C(Cc2ccccc2)N1 (stereo not given)
> 2000 µM | COc1ccc(/C=C2\SC(=O)NC2=O)c(OC)c1
> 2000 µM | O=C1NC(=O)/C(=C/c2ccccc2)N1
